Results reported in article PMC3281519 (Journal of Medicinal Chemistry, 2011).
Values belong to the compound of their own block, whether it stands above or below them.

Columns and labels:
Sprague-Dawley rats = assay type: in vivo; conditions: rats treated at 10 mg/kg s.c., observed over nine hours
[1] = Pharmacokinetics after oral administration in rats; assay type: in vivo; conditions: rat; compared with 21j
U937 cell line = assay: Acute toxicity on U937 cell line; assay type: cell-based; conditions: U937 cells
recombinant human sEH = biological target: T1, recombinant human sEH (Homo sapiens, UniProt P34913); assay: sEH IC50 kinetic fluorescent assay; assay type: biochemical
T1 sequence (P34913 1-555): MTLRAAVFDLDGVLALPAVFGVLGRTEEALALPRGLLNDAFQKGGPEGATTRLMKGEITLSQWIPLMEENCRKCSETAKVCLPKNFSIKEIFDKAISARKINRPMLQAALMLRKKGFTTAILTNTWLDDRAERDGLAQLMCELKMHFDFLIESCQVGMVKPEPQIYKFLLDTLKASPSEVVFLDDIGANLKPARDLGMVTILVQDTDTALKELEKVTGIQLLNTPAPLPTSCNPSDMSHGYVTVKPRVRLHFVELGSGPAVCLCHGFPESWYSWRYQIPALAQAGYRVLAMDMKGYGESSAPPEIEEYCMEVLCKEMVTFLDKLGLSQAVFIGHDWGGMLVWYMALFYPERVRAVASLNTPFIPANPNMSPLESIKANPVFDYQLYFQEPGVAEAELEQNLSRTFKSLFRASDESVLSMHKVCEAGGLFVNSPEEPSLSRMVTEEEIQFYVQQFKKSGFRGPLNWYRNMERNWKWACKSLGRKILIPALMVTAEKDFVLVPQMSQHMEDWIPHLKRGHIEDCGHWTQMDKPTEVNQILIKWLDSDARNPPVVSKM

human recombinant COX-2 = biological target: T2, human recombinant COX-2 (Homo sapiens, UniProt P35354); assay: COX Fluorescent Inhibitor Screening Assay, COX-2; conditions: compared to compound 21b
T2 sequence (P35354 18-604): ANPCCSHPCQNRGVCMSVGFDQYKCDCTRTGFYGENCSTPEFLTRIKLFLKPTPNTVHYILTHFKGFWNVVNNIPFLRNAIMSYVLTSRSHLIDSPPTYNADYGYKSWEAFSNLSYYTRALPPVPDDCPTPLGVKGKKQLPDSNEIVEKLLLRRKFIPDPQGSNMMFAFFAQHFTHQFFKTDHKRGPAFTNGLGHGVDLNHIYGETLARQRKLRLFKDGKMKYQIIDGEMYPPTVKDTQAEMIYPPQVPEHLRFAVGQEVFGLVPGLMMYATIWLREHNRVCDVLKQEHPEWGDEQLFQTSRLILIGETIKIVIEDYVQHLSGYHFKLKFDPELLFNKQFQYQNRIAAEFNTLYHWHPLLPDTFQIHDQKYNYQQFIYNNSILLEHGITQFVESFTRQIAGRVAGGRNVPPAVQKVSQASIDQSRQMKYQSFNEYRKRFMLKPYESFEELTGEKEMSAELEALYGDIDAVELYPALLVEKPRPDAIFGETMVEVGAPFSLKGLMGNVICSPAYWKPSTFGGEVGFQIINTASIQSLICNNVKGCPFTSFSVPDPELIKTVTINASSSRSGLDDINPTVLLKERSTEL

[2] = Pharmacokinetic screening by oral cassette dosing in mice; assay type: in vivo; conditions: mouse; compared to 21i and 21j

Structure (SMILES): NS(=O)(=O)c1ccc(-n2nc(CCCNC(=O)Nc3ccc(C(F)(F)F)cc3)cc2-c2ccccc2)cc1 [Compound 21i, 4-(5-Phenyl-3-{3-[3-(4-trifluoromethyl-phenyl)-ureido]-propyl}-pyrazol-1-yl)-benzenesulfonamide]
- overt signs of behavioral changes or acute toxicity (Sprague-Dawley rats): no overt signs of any behavioral changes or acute observable symptoms of toxicity
- higher Cmax [1]: 2 fold
- acute toxicity on U937 cell line (U937 cell line): did not observe any acute toxicity

- improvement of sEH inhibition (recombinant human sEH; compared to compound 11g): 3 fold
Structure (SMILES): NS(=O)(=O)c1ccc(-n2nc(CCNC(=O)Nc3cccc(C(F)(F)F)c3)cc2-c2ccccc2)cc1 [Compound 15, 4-(5-Phenyl-3-{2-[3-(3-trifluoromethyl-phenyl)-ureido]-ethyl}-pyrazol-1-yl)-benzenesulfonamide]

- diminished sEH activity (recombinant human sEH; compared to compound 21b): 3 fold
- diminished COX-2 activity (human recombinant COX-2): 3 fold
Structure (SMILES): Cc1ccc(-c2cc(CCCNC(=O)Nc3cccc(C(F)(F)F)c3)nn2-c2ccc(S(N)(=O)=O)cc2)cc1 [Compound 21c]

- improvement of sEH inhibition (recombinant human sEH; compared with compound 11a): 10 fold
Structure (SMILES): CS(=O)(=O)c1ccc(-n2nc(CNC(=O)NC3CCCCCC3)cc2-c2ccccc2)cc1 [Compound 11b, 1-Cycloheptyl-3-[1-(4-methanesulfonyl-phenyl)-5-phenyl-1H-pyrazol-3-ylmethyl]-urea]

- decrease in AUC [2]: 8 fold
- lower Cmax [2]: 15 fold
- improvement of sEH inhibition (recombinant human sEH; compared to compound 11g): 20 fold
Structure (SMILES): NS(=O)(=O)c1ccc(-n2nc(CCCNC(=O)Nc3cccc(C(F)(F)F)c3)cc2-c2ccccc2)cc1 [Compound 21b, 4-(5-Phenyl-3-{3-[3-(3-trifluoromethyl-phenyl)-ureido]-propyl}-pyrazol-1-yl)-benzenesulfonamide]
